Reference: patent US7282469B2, “4-trifluoromethylpyrazolyl-substituted pyridines and pyrimidines” (Bayer CropScience GmbH, priority 2002, dated 2007)

Columns and labels:
Alopecurus myosuroides = experiment: Weed plant herbicidal activity, pre-emergence; assay type: in vivo; settings: 20 g of active substance per hectare, visual scoring after 3 to 4 weeks
Source text: (§1) 1. Weed Plant Herbicidal Activity and Crop Plant Tolerance, Pre-emergence
(§2) Seeds of monocotyledonous and dicotyledonous weed plants and also of crop plants are placed in sandy loam soil in cardboard pots and are covered with soil. The compounds of the invention, formulated as wettable powders or emulsifiable concentrates, are then applied as an aqueous suspension or emulsion, respectively, and at different dosages to the surface of the covering soil at an application rate of 600 to 800 l of water per ha (converted). Following treatment, the pots are placed in a greenhouse and kept under good growth conditions for the weeds. Visual scoring of the plant damage or emergence damage is made after the test plants have emerged, after an experimental period of 3 to 4 weeks, in comparison with untreated controls. In this case, for example, the compounds of the invention from examples nos. 1.7 and 4.1 at a dosage of 320 g of active substance per hectare display a 100% activity against Digitaria sanguinalis, Setaria viridis and Amaranthus retroflexus. At the same dosage these compounds of the invention cause no damage to the crop plants Oryza sativa (rice) and Glycine max (soybean). The compound of the invention from example no. […] At the same dosage this compound of the invention causes no damage to the crop plants Oryza sativa (rice), Zea mays (maize) and Glycine max (soybean). At a dosage of 320 g of active substance per hectare, the compound of the invention from example no.

Amaranthus retroflexus = experiment: Weed plant herbicidal activity, pre-emergence; assay type: in vivo; settings: visual scoring after 3 to 4 weeks
Source text: as §1, §2

Digitaria sanguinalis = experiment: Weed plant herbicidal activity, pre-emergence; assay type: in vivo; settings: 320 g of active substance per hectare, visual scoring after 3 to 4 weeks
Source text: as §1, §2

Setaria viridis = experiment: Weed plant herbicidal activity, pre-emergence; assay type: in vivo; settings: visual scoring after 3 to 4 weeks
Source text: as §1, §2

Veronica persica = experiment: Weed plant herbicidal activity, pre-emergence; assay type: in vivo; settings: 20 g of active substance per hectare, visual scoring after 3 to 4 weeks
Source text: as §1, §2

Glycine max (soybean) = experiment: Crop plant tolerance, pre-emergence; assay type: in vivo
Source text: as §1, §2

Oryza sativa (rice) = experiment: Crop plant tolerance, pre-emergence; assay type: in vivo
Source text: as §1, §2

Zea mays (maize) = experiment: Crop plant tolerance, pre-emergence; assay type: in vivo; settings: 20 g of active substance per hectare
Source text: as §1, §2

[1] = 20 g of active substance per hectare
[2] = 320 g of active substance per hectare

Cc1cnc(-n2cc(C(F)(F)F)cn2)nc1Oc1cccc(C(F)(F)F)c1 [Example 1.7, 5-methyl-4-(3-trifluoromethylphenoxy)-2-(4-trifluoromethyl-1H-1-pyrazolyl)pyrimidine]
activity against Alopecurus myosuroides (Alopecurus myosuroides): at least 90% | activity against Amaranthus retroflexus (Amaranthus retroflexus; [1]): at least 90% | activity against Amaranthus retroflexus (Amaranthus retroflexus; [2]): 100% | activity against Digitaria sanguinalis (Digitaria sanguinalis): 100% | activity against Setaria viridis (Setaria viridis; [1]): at least 90% | activity against Setaria viridis (Setaria viridis; [2]): 100% | activity against Veronica persica (Veronica persica): at least 90% | damage to the crop plant Glycine max (soybean) (Glycine max (soybean); [1]): no damage | damage to the crop plant Glycine max (soybean) (Glycine max (soybean); [2]): no damage | damage to the crop plant Oryza sativa (rice) (Oryza sativa (rice); [1]): no damage | damage to the crop plant Oryza sativa (rice) (Oryza sativa (rice); [2]): no damage | damage to the crop plant Zea mays (maize) (Zea mays (maize)): no damage | melting point: 103 to 105 °C
